Data set [1] has as its system human microvessels. Briefly: Uptake of 5-FAM labeled peptide by isolated human microvessels (microscopy). The following applies: 10 uM, 8 h. How it is done:
(§1) FIGS. 2A-2B. (A) Dissected human microvessels are shown. The top panels are brightfield images, while the bottom three panels are images of the same vessels under laser excitation with a filter to visualize emission from 5-FAM. Vessels were treated with 5-FAM labeled peptide (nucXTERT-W) at a 10 uM concentration for 8 hours (h), or left untreated (control). (B) H1299 non-small cell lung carcinoma cells were seeded onto slides and treated with 0, 50, or 100 μM 5-FAM labeled nucXTERT-W for 8 h. DAPI=blue; 5-FAM labeled peptide=green.
Peptide synthesis was conducted by GeneMed Synthesis (San Antonio, Tex.). All peptide sequences were verified by mass spectrometry, and were only used at a purity of greater than 95%. Lyophilized peptides were stored at −20 degrees Celsius. Given the charge properties of the peptides used in these studies, phosphate buffered saline (PBS) was selected as the solvent of choice to dissolve all peptides used. […]
One of the first hurdles that required consideration when evaluating the ability of novel peptides to alter telomerase localization is their ability to be internalized by living tissues. nucXTERT was labeled with 5-carboxyfluorescein (5-FAM). Isolated human microvessels incubated with the 5-FAM labeled peptide were analyzed by microscopy. […]

Data set [2] has as its system H1299 non-small cell lung carcinoma cells. Nature of the data set: Uptake of 5-FAM labeled peptide by H1299 cells (microscopy). The format is cell-based, human. The following applies: 50 or 100 μM, 8 h. How it is done:
as §1
The NCI-H1299 cell line was used for the cell culture experiments described in this manuscript. Cells were cultured in RPMI (Invitrogen) supplemented with 10% fetal bovine serum (Sigma).
One of the first hurdles that required consideration when evaluating the ability of novel peptides to alter telomerase localization is their ability to be internalized by living tissues. nucXTERT was labeled with 5-carboxyfluorescein (5-FAM). Isolated human microvessels incubated with the 5-FAM labeled peptide were analyzed by microscopy. Robust signal is present in vessels pulsed with the peptide, while vessels not treated with peptide have no signal. […] Since peptide is taken up by vessels, it was possible to study the effect of peptide treatment on vessel physiology, using human microvessels as described in the methods. […]

For data set [3], the system named is human microvessels. Nature of the data set: Flow-mediated dilation (FMD) of isolated human microvessels with or without ANG II challenge. The following applies: for protection of flow-mediated vasodilation from ANG II: overnight pre-treatment, ANG II 10 nM 30 min; for baseline vessel constriction, % of maximum diameter: after 10 minutes of ET-1 treatment. Here is the method: (§2) Microvessels were dissected from surgical discard tissues, predominantly consisting of adipose. Only vessels with a diameter of less than 300 micrometers were selected for further study. All microvessels were obtained from discarded surgical tissues, in accordance with an Institutional Review Board approved protocols (PRO00000114, PRO00010828, PRO00001094) at the Medical College of Wisconsin, Milwaukee, Wis.
(§3) After dissection, vessels were incubated overnight in complete endothelial cell media, supplemented with 5% fetal bovine serum (Lonza) with or without peptides as described. Following overnight incubation, peptides were washed out and vessels were cannulated and transferred to physiological salt solution. A video microscopy setup enabled monitoring of vessels in real time. Vessels were pre-constricted with endothelin-1 (ET-1) at a dose range of 0.1-1 nM. Only vessels capable of constricting at least 20% from baseline were included in the study. Flow-mediated dilation (FMD) and Ach-induced dilation were then evaluated, followed by evaluation of endothelium-independent dilation to papaverin. After establishing this baseline, vessels were pre-constricted again with ET-1 and dilator curves repeated in the presence of Angiotensin II (ANG II), as described below.
FMD was evaluated by adjusting the heights of two reservoirs in equal and opposite directions to generate flow by altering vessel central pressure. After each change in pressure gradient, vessel diameter was measured and assessed using video microscopy. Prior to measuring FMD, all vessels studied were pre-constricted using endothelin-1.
(§4) Baseline vessel parameters, including ability to dilate in response to FMD, as described above were assessed. Following assessment, vessels were treated with ANG II at a final concentration of 10 nM for 30 minutes before FMD and response to ACh was re-assessed.

The test system of data set [4] is human microvessels. Nature of the data set: ACh-induced dilation of isolated human microvessels with or without ANG II challenge. The following applies: for protection of ACh-induced vasodilation from ANG II: overnight pre-treatment, ANG II 10 nM 30 min. How it is done: as §2, §3, §4
Data set [5] has as its system human microvessels of healthy donors. Briefly: Mechanism of FMD (L-NAME / PEG-Catalase) in microvessels from healthy (non-CAD) donors. How it is done: (§5) Live human microvessels were dissected from adipose from individuals with clinically confirmed coronary artery disease (CAD). Vessels were treated with nucXTERT in the presence of either vehicle or L-NAME or PEG-Catalase. Response to pressure gradient (flow) stimulus was evaluated. Microvessels from the adipose of healthy human donors was treated with either vehicle or mitoXTERT with or without NG-nitro-L-arginine methyl ester (L-NAME) or PEG-Catalase. The ability of the vessels to dilate in response to a pressure gradient (flow) was assessed.
FIGS. 7A-7C show dose titration of PEGylated nucXTERT-E in isolated vessel studies. nucXTERT with S→E substitution was PEGylated at the C-terminus to increase bio stability and cell permeability. Effective doses from 10 μM to 1 nM were tested. PEGylated peptide could be titrated down to 1 nM with vascular protective effects. […] N=3-4.
(§6) Dependence of vessels on NO versus hydrogen peroxide signaling in dilation was assessed using the pharmacologic agents Nw-nitro-L-arginine methyl ester (L-NAME; 100 μmol/L) and polyethylene glycol-catalase (PEG-catalase; 500 U/mL), respectively, where described.

Data set [6] relates to human microvessels from individuals with coronary artery disease (CAD). Briefly: Mechanism of FMD (L-NAME / PEG-Catalase) in microvessels from donors with coronary artery disease. The following applies: vessels pretreated with peptide. How it is done: as §5, §6
At baseline, these vessels respond to vasodilatory stimuli through the use of H2O2 as a signaling mechanism to enable dilation. Treatment of vessels with PEG-Catalase, a scavenger of H2O2 effectively attenuates vasodilation. […] In vessels from subjects with CAD, H2O2 represents the dominant vasodilator.

In data set [7] the test system is ANG II induced endothelial dysfunction. Nature of the data set: In vivo ANG II infusion model of hypertension and endothelial dysfunction. Details: species or system mice. Here is the method:
Mice were treated with commonly used stressors to induce hypertension and endothelial dysfunction. The fast pressor dose of ANG II (1000 ng/kg/min) was infused via osmotic mini-pump for 14 days. A subgroup of animals was co-treated with nucXTERT (30 μg/day via osmotic mini-pump) in addition to ANG II, for the same duration and using the same delivery system. Curves were compared to historic controls (vehicle). […] Smooth muscle-dependent dilation in response to vasodilator papaverin was not effected (data not shown). * P<0.05 vs. Vehicle one way ANOVA RM, N=5).
To test in vivo effects of nucXTERT mice were treated with commonly used stress to induce hypertension and endothelial dysfunction. The fast pressor dose of ANG II (1000 ng/kg/min) was infused via osmotic minipump for 14 days. A subgroup of animals was co-treated with nucXTERT (30 μg/day via osmotic mini pump) in addition to ANG II, for the same duration and using the same delivery system. Curves were compared to historic controls (vehicle). […] Smooth muscle dependent dilation to papaverin was not effected (data not shown).

[8] abbreviates: 30 μg/day via osmotic mini pump, 14 days, ANG II 1000 ng/kg/min.

The values that follow come from US10858397B2, “Peptide inhibitors of telomerase translocation and therapeutic uses thereof” (THE MEDICAL COLLEGE OF WISCONSIN, INC., priority 2015, dated 2020).

Where a SMILES comes first, the peptide text is derived from it. Primed or numbered codes have the meaning given here. The star is where a group is joined. PEG12′ = C-terminal PEG12 polyethylene glycol (PEGylation) moiety, followed by a C-terminal amide; 5FAM = O=C1OC2(c3ccc(O)cc3Oc3cc(O)ccc32)c2ccc(C(=O)*)cc21

For the compound `CC(C)C[C@H](NC(=O)[C@H](CO)NC(=O)[C@H](CCCNC(=N)N)NC(=O)[C@H](CO)NC(=O)[C@H](C)NC(=O)[C@H](CO)NC(=O)CNC(=O)CNC(=O)[C@H](CCCNC(=N)N)NC(=O)[C@H](CCCNC(=N)N)NC(=O)[C@H](CCCNC(=N)N)NC(=O)c1ccc2c(c1)C(=O)OC21c2ccc(O)cc2Oc2cc(O)ccc21)C(=O)N1CCC[C@H]1C(=O)N[C@@H](CC(C)C)C(=O)N1CCC[C@H]1C(=O)N[C@@H](CCCCN)C(=O)N[C@@H](CCCNC(=N)N)C(=O)N1CCC[C@H]1C(=O)N[C@@H](CCCNC(=N)N)C(=O)N[C@@H](CCCNC(=N)N)C(=O)O` [5-FAM labeled peptide] (5FAM-RRRGGSASRSLPLPKRPRR-OH; N-terminus and C-terminus assumed), the “5-FAM signal in vessels pulsed with peptide (uptake by living tissue)” value with human microvessels [1] is “Robust signal”. In data set [2], the “uptake of labeled peptide into cells” value was “effectively traffics into the cell”.
`C/C(=C\C(=O)Nc1ccccc1C(=O)O)c1ccc2ccccc2c1` [BIBR1532, reference compound]: the “vasodilation in response to flow stimulus” value in the data set with human microvessels [3] (overnight treatment, no ANG II) is on record as “continue to dilate in response to flow stimulus”. The “vasodilation in response to acetylcholine” value with human microvessels [4] (overnight treatment, no ANG II) is listed as “effectively eliminates vasodilation in response to acetylcholine”.
As to “Ac-CGGRRRGGEASRSLPLPKRPRR-peg12-amide (Ac-CGGRRRGGEASRSLPLPKRPRR-{PEG12′-NH2}) [PEGylated peptide, nucXTERT with S→E substitution PEGylated at the C-terminus]”, the “lowest dose with vascular protective effects (dose titration)” value in the data set on human microvessels [3] (doses from 10 μM to 1 nM tested) is 1 nM. Besides, in the data set on human microvessels [3], the “protection of flow-mediated vasodilation from ANG II” value is on record as “protected against ANG II induced endothelial dysfunction”. The “mechanism of FMD in non-CAD vessels (L-NAME inhibitable)” value in data set [5] (non-CAD vessels) is listed as “did not alter”.
Regarding “MPRAPRCRAVRSLLRSHYRE (listed as Homo sapiens) [mitoXTERT, decoy peptide containing regions of the telomerase MLS]”, the “protection of flow-mediated vasodilation from ANG II” value with human microvessels [3] is given as “no protection of the endothelium from ANG II stress”. In the data set with human microvessels [4], the “protection of ACh-induced vasodilation from ANG II” value is reported as “no protection of the endothelium from ANG II stress”. Moreover, the “mechanism of dilation in healthy vessels” value in data set [5] (treated with peptide, with or without L-NAME or PEG-Catalase) is given as “from NO-mediated dilation to H2O2-dependent dilation”.
As for “RRRGGAASRSLPLPKRPRR (phospho-deficient nucXTERT-A)”, in the data set on human microvessels [3], the “baseline vessel constriction, % of maximum diameter” value was 53±12% and the “protection of flow-mediated vasodilation from ANG II” value is “does not protect vessels from attenuation of vasodilator capacity”. In the data set on human microvessels [4], the “protection of ACh-induced vasodilation from ANG II” value is given as “does not protect vessels from attenuation of vasodilator capacity”.
Take “RRRGGEASRSLPLPKRPRR (phosphomimetic nucXTERT-E) [phosphomimetic containing a glutamic acid substitution at position 227]”: in the data set on human microvessels [3], the “baseline vessel constriction, % of maximum diameter” value is on record as 48±18% and the “protection of flow-mediated vasodilation from ANG II” value is recorded as “prevents ANG II-induced endothelial dysfunction”. Besides, the “protection of ACh-induced vasodilation from ANG II” value with human microvessels [4] is “prevents ANG II-induced endothelial dysfunction”.
With “RRRGGSASRSLPLPKRPRR (listed as Homo sapiens) [nucXTERT]”, the “protection of flow-mediated vasodilation from ANG II” value in the data set on human microvessels [3] is given as “not impacted by ANG II treatment”. Besides, the “protection of ACh-induced vasodilation from ANG II” value in the data set on human microvessels [4] was “not impacted by ANG II treatment”. Besides, in data set [6], the “effect of PEG-Catalase on dilation responses in CAD vessels” value is listed as “no longer inhibits dilation responses” and the “main mechanism of FMD in CAD vessels” value is recorded as “NO is restored as the main mechanism of FMD”. For the same compound, in data set [7] (setting [8]), the “FMD under ANG II” value is listed as “prevented onset of ANG II induced endothelial dysfunction” and the “agonist (ACh) induced endothelium-dependent dilation under ANG II” value was “prevented onset of ANG II induced endothelial dysfunction”. Moreover, in data set [7] (data not shown), the “smooth muscle dependent dilation to papaverin” value is “not effected”.
